Several values for one entry are separate records, joined by “and”; a condition that tells them apart may be missing. Identical values can stand only once. Marks after values point to notes of the source that are not given here.
Key:
[1] = Stability in simulated stomach acid (0.10 M HCl); conditions: 0.10 M HCl (simulated stomach acid)
[2] = Solubility, screen method, phosphate buffer pH 7.4, 1% DMSO; type: physicochemical; conditions: phosphate buffer with 1% DMSO; 100 mM phosphate buffer pH 7.4, 1% DMSO; assay range 0.1 to 100 μM
[3] = Metabolic stability in human microsomes; type: in vitro ADME; conditions: for Metabolic stability in human microsomes: 37 °C, 0.5 mg/mL protein, 1 μM compound, 1 mM NADPH; for Comment on microsome assay: Table S3
[4] = Chemical stability in 1.0 M NaHCO3 and 1.0 M HCl
[5] = Co-factor experiment: microsome suspension with and without NADPH; type: in vitro ADME, human; conditions: for Co-factor experiment: degradation with and without addition of NADPH compared
Protocol: Therefore, additional experiments comparing stability with and without the addition of NADPH cofactor and a very short incubation period were performed (Tables S4 and S5). […] Due to the rapid observed degradation in microsomes, we decided to investigate the stability of five compounds in human plasma, aiming for a broad range of stabilities (Table 2, Table S6). It should be noted that esterase-labile compounds are notoriously difficult to study in microsomal stability studies.[36]
Table S3 Evaluation of metabolic stability in human microsomes
No. Metabolic stability Comment
4k <10/<10 Low retention in chromatography
8 <10/<10 Low retention in chromatography.
Table S4 Results from the modified microsome assay where degradation with and without the addition of NADPH was compared […]
4d Very low peak area for the first time point,
4e Very low peak area for the first time point,
4f Very low peak area for the first time point,
5 Very low peak area for the first time point,
8 No degradation without co -factor […]
metabolism by the microsomes (consisting mainly of cytochrome P450 enzymes) or if it was due to other factors, the compounds (with the exception of 4k) were incubated in the microsome suspension both with and without the addition of NADPH. Samples […]
(§1) were taken at three timepoints, and the degradation was compared to determine if it was dependent on NADPH. Compound 4k […]
(§2) without the addition of NADPH. […]
(§3) microsomes that need to be activated by a co -factor.
(§4) Table S5 Percent of peak area found in microsome suspension 15 seconds after the addition of NADPH in comparison with the same amount dissolved in H2O/EtOH
(§5) No. Area at 0.25 min. in Area in solution % found in microsomes/NADPH (125 nM) microsome
(§6) Comparison with compounds in solution. A comparison was made between the peak area of the compounds in solution with that obtained in the microsome suspension directly after the addition of NADPH (about 0.25 minutes) (Table S5). Before the addition of NADPH, the compounds are equilibrated in the microsome suspension for approximately five minutes. All compounds were prepared in solution by diluting a portion of the DMSO solutions with H2O/EtOH (75:25) to 125 nM (the final concentration of compounds for analysis in the microsome assay).
(§7) For the compounds where no results from the microsome assay could be reported due to low peak area (4d, 4e, 4f & 5), less than one percent of the expected peak area as compared with the area in solution was detected. […]
(§8) degrade rapidly before the addition of the co-factor after five minutes in incubation. For compounds 4g, 4h, 4i & 4j, which were […]
(§9) higher relative peak areas were found. […]
(§10) without NADPH was only found at 15% of the area seen in solution in the microsome suspension.

[6] = Peak area in microsome suspension compared with compounds in solution; type: in vitro ADME, human; conditions: peak area 15 seconds after addition of NADPH versus same amount (125 nM) in H2O/EtOH
Protocol: as §1, §2, §3, §4, §5, §6, §7, §8, §9, §10

[7] = cited from earlier work

SMILES | half-life at 5 mM [1] | solubility [2] | Metabolic stability in human microsomes [3] | Comment on microsome assay [3] | half-life at 24 h, 5 mM ([4]; 1.0 M HCl) | half-life at 24 h, 5 mM ([4]; 1.0 M NaHCO3) | Co-factor experiment [5] | % found in microsome suspension [6] | half-life at 5 mM ([4]; 1.0 M HCl) | microsomal CLint ([5]; human, human microsome suspension, both with and without the addition of NADPH, read-out: intrinsic clearance) | half-life at 5 mM ([4]; 1.0 M NaHCO3) | degradation of psilocin under UV radiation ([7]; 254 nm, in EtOH, after 1.75 h) | degradation of psilocin in NaOH solution ([7]; NaOH solution (1 M), after 2 h, ref 46 (Barrow et al.)) | degradation of psilocin in oxidative conditions ([7]; oxidative conditions)
CCCC(=O)Oc1cccc2[nH]cc(CCN(C)C)c12.O=C(O)/C=C/C(=O)O [Compound 4b] | > 167 h | 87 µM | >200^a μL/min/mg protein and >200 μL/min/mg protein | Rapid degradation | 15 h | 65 h | No degradation without co-factor | 0.3% |  |  |  |  |  | 
CCCCC(=O)Oc1cccc2[nH]cc(CCN(C)C)c12.O=C(O)/C=C/C(=O)O [Compound 4c] | > 167 h | 87 µM | >200^a μL/min/mg protein and >200 μL/min/mg protein | Rapid degradation | 13.3 h | 50 h | No degradation without co-factor | 0.2% |  |  |  |  |  | 
CN(C)CCc1c[nH]c2cccc(OC(=O)c3ccccc3)c12.O=C(O)/C=C/C(=O)O [Compound 4h] | > 167 h | > 90 µM | >200^a μL/min/mg protein and >200 μL/min/mg protein | Rapid degradation |  | 150 h | Degradation without co-factor | 44% | > 167 h | > 200 µL/min/mg |  |  |  | 
CN(C)CCc1c[nH]c2cccc(OS(=O)(=O)O)c12 [Compound 6] | > 167 h | > 90 µM | >200 μL/min/mg protein | Rapid degradation |  |  | No degradation without co-factor | 15% | > 167 h |  | > 167 h |  |  | 
CN(C)CCc1c[nH]c2cccc(O)c12 [psilocin freebase, 4-hydroxy-N,N-dimethyltryptamine] |  |  |  |  |  |  |  |  |  |  |  | 9% | 60% | complete degradation after only two hours
